Experiment: mn = molality of the nth substance listed, in mol/kg
Settings: Liquid

O=[N+]([O-])[O-].[Li+] [lithium nitrate] + CO
Settings	mass density [kg/m3]
298.15 K, 124 kPa, m1 = 0.1551	794.38
298.15 K, 125 kPa, m1 = 0.2943	800.98
298.15 K, 254 kPa, m1 = 0.8904	826.51
298.15 K, 4856 kPa, m1 = 0.1551	798.86
298.15 K, 5035 kPa, m1 = 0.2943	805.54
298.15 K, 5745 kPa, m1 = 0.8904	831.27
298.15 K, 10235 kPa, m1 = 0.2943	810.19
298.15 K, 10235 kPa, m1 = 0.8904	835.02
298.15 K, 11542 kPa, m1 = 0.1551	804.92
298.15 K, 15247 kPa, m1 = 0.2943	814.48
298.15 K, 15625 kPa, m1 = 0.8904	839.35
298.15 K, 16024 kPa, m1 = 0.1551	808.79
298.15 K, 19745 kPa, m1 = 0.1551	811.89
298.15 K, 20056 kPa, m1 = 0.2943	818.43
298.15 K, 20856 kPa, m1 = 0.8904	843.37
298.15 K, 25158 kPa, m1 = 0.2943	822.44
298.15 K, 25656 kPa, m1 = 0.8904	846.91
298.15 K, 25856 kPa, m1 = 0.1551	816.76
298.15 K, 30142 kPa, m1 = 0.1551	820.02
298.15 K, 30235 kPa, m1 = 0.2943	826.24
298.15 K, 30254 kPa, m1 = 0.8904	850.16
298.15 K, 35626 kPa, m1 = 0.8904	853.78
298.15 K, 35751 kPa, m1 = 0.2943	830.16
298.15 K, 35785 kPa, m1 = 0.1551	824.09
298.15 K, 39875 kPa, m1 = 0.2943	832.95
298.15 K, 39897 kPa, m1 = 0.1551	826.91
298.15 K, 39957 kPa, m1 = 0.8904	856.57
298.27 K, 205 kPa, m1 = 3.614	928.48
298.27 K, 5001 kPa, m1 = 3.614	931.92
298.27 K, 10011 kPa, m1 = 3.614	935.38
298.27 K, 15005 kPa, m1 = 3.614	938.69
298.27 K, 19984 kPa, m1 = 3.614	941.89
298.27 K, 25008 kPa, m1 = 3.614	945.02
298.27 K, 30003 kPa, m1 = 3.614	948.03
298.27 K, 35001 kPa, m1 = 3.614	950.96
298.27 K, 40010 kPa, m1 = 3.614	953.79
298.28 K, 189 kPa, m1 = 1.803	863.5
298.28 K, 205 kPa, m1 = 0.5393	811.38
298.28 K, 4985 kPa, m1 = 0.5393	815.76
298.28 K, 4986 kPa, m1 = 1.803	867.42
298.28 K, 9983 kPa, m1 = 1.803	871.31
298.28 K, 9995 kPa, m1 = 0.5393	820.13
298.28 K, 14986 kPa, m1 = 1.803	875.06
298.28 K, 15005 kPa, m1 = 0.5393	824.3
298.28 K, 19989 kPa, m1 = 1.803	878.65
298.28 K, 19996 kPa, m1 = 0.5393	828.26
298.28 K, 24989 kPa, m1 = 1.803	882.11
298.28 K, 24994 kPa, m1 = 0.5393	832.06
298.28 K, 29989 kPa, m1 = 1.803	885.44
298.28 K, 29991 kPa, m1 = 0.5393	835.71
298.28 K, 34990 kPa, m1 = 1.803	888.67
298.28 K, 34996 kPa, m1 = 0.5393	839.23
298.28 K, 39995 kPa, m1 = 0.5393	842.62
298.28 K, 39997 kPa, m1 = 1.803	891.8
323.15 K, 215 kPa, m1 = 0.8904	804.21
323.15 K, 321 kPa, m1 = 0.2943	777.56
323.15 K, 412 kPa, m1 = 0.1551	770.76
323.15 K, 5026 kPa, m1 = 0.8904	809.05
323.15 K, 5087 kPa, m1 = 0.2943	782.63
323.15 K, 5784 kPa, m1 = 0.1551	776.58
323.15 K, 9859 kPa, m1 = 0.1551	780.81
323.15 K, 10214 kPa, m1 = 0.8904	814.03
323.15 K, 10862 kPa, m1 = 0.2943	788.49
323.15 K, 15038 kPa, m1 = 0.2943	792.54
323.15 K, 15864 kPa, m1 = 0.8904	819.19
323.15 K, 16173 kPa, m1 = 0.1551	787.05
323.15 K, 19786 kPa, m1 = 0.1551	790.45
323.15 K, 20247 kPa, m1 = 0.8904	823
323.15 K, 20742 kPa, m1 = 0.2943	797.81
323.15 K, 25168 kPa, m1 = 0.2943	801.7
323.15 K, 25632 kPa, m1 = 0.8904	827.45
323.15 K, 26297 kPa, m1 = 0.1551	796.26
323.15 K, 30058 kPa, m1 = 0.8904	830.92
323.15 K, 30685 kPa, m1 = 0.2943	806.29
323.15 K, 31035 kPa, m1 = 0.1551	800.23
323.15 K, 35027 kPa, m1 = 0.2943	809.7
323.15 K, 35214 kPa, m1 = 0.8904	834.74
323.15 K, 35748 kPa, m1 = 0.1551	803.97
323.15 K, 39867 kPa, m1 = 0.1551	807.06
323.15 K, 39867 kPa, m1 = 0.8904	837.98
323.15 K, 40002 kPa, m1 = 0.2943	813.4
323.23 K, 206 kPa, m1 = 3.614	908.05
323.23 K, 211 kPa, m1 = 0.5393	788.49
323.23 K, 234 kPa, m1 = 1.803	842.01
323.23 K, 4982 kPa, m1 = 3.614	911.88
323.23 K, 4988 kPa, m1 = 1.803	846.4
323.23 K, 4989 kPa, m1 = 0.5393	793.5
323.23 K, 9987 kPa, m1 = 3.614	915.71
323.23 K, 9991 kPa, m1 = 0.5393	798.45
323.23 K, 10005 kPa, m1 = 1.803	850.8
323.23 K, 14993 kPa, m1 = 3.614	919.41
323.23 K, 14999 kPa, m1 = 0.5393	803.13
323.23 K, 15005 kPa, m1 = 1.803	854.96
323.23 K, 19987 kPa, m1 = 3.614	922.95
323.23 K, 19992 kPa, m1 = 1.803	858.94
323.23 K, 19999 kPa, m1 = 0.5393	807.57
323.23 K, 24991 kPa, m1 = 3.614	926.36
323.23 K, 24995 kPa, m1 = 1.803	862.77
323.23 K, 24997 kPa, m1 = 0.5393	811.8
323.23 K, 29993 kPa, m1 = 0.5393	815.84
323.23 K, 29998 kPa, m1 = 3.614	929.67
323.23 K, 30014 kPa, m1 = 1.803	866.46
323.23 K, 34988 kPa, m1 = 0.5393	819.71
323.23 K, 34989 kPa, m1 = 3.614	932.86
323.23 K, 34999 kPa, m1 = 1.803	869.98
323.23 K, 39993 kPa, m1 = 3.614	935.96
323.23 K, 39995 kPa, m1 = 0.5393	823.45
323.23 K, 39997 kPa, m1 = 1.803	873.39
348.15 K, 381 kPa, m1 = 0.1551	746.07
348.15 K, 409 kPa, m1 = 0.8904	781.31
348.15 K, 425 kPa, m1 = 0.2943	753.31
348.15 K, 5068 kPa, m1 = 0.1551	751.95
348.15 K, 5124 kPa, m1 = 0.2943	759.07
348.15 K, 5124 kPa, m1 = 0.8904	786.59
348.15 K, 10572 kPa, m1 = 0.2943	765.41
348.15 K, 10865 kPa, m1 = 0.8904	792.73
348.15 K, 10875 kPa, m1 = 0.1551	758.86
348.15 K, 15038 kPa, m1 = 0.1551	763.56
348.15 K, 15324 kPa, m1 = 0.2943	770.66
348.15 K, 15326 kPa, m1 = 0.8904	797.27
348.15 K, 19875 kPa, m1 = 0.1551	768.75
348.15 K, 20125 kPa, m1 = 0.2943	775.7
348.15 K, 20875 kPa, m1 = 0.8904	802.64
348.15 K, 25412 kPa, m1 = 0.8904	806.8
348.15 K, 25632 kPa, m1 = 0.2943	781.14
348.15 K, 26038 kPa, m1 = 0.1551	774.93
348.15 K, 30057 kPa, m1 = 0.2943	785.25
348.15 K, 30587 kPa, m1 = 0.8904	811.29
348.15 K, 31412 kPa, m1 = 0.1551	779.95
348.15 K, 35231 kPa, m1 = 0.8904	815.1
348.15 K, 35748 kPa, m1 = 0.1551	783.73
348.15 K, 35942 kPa, m1 = 0.2943	790.36
348.15 K, 39511 kPa, m1 = 0.2943	793.25
348.15 K, 39784 kPa, m1 = 0.1551	787.04
348.15 K, 40005 kPa, m1 = 0.8904	818.78

Reference: the NIST ThermoML archive (doi:10.1016/j.jct.2006.01.008)
